Results published in patent EP0550007A2, “Eseroline derivatives having anticholinesterase activity, a process for their preparation and pharmaceutical compositions containing them” (priority 1991, dated 1993).

What was measured:
[1] = antagonist activity against the stimulating effect of an anticholinergic substance (scopolamine); assay type: in vivo, mice SWISS; conditions: scopolamine subcutaneously injected, 1mg/kg, mice
Method: As the central anticholinergic stimulating agent the scopolamine was used subcutaneously injected to groups of 10 mice SWISS ([…]) at the dose of 1mg/kg.
At this dose the substance under question caused in all the animals a marked increase (80-100%) of the spontaneous motility, evaluated according to the above described method .

[2] = antagonist effect on the stimulating effect of scopolamine (motor activity), ESE series; assay type: in vivo; conditions: scopolamine at the dose of 1 mg/kg
Method: This is countered by the oral administration of 2.5 mg of ESE001, ESE002, ESE003, ESE004.

[3] = test system: acetylcholinesterase activity (AchE); assay: in vivo anticholinesterase activity (blood and brain, Ellman colorimetric method); set-up: species or system Wistar male rats; conditions: rats, oral, 1.5 to 4 mg/kg; sacrificed after 20, 60 and 120 minutes
Method: The derivatives, under question and physostigmine suspended in 2% carboxymethylcellulose, were orally administered to groups of Wistar male rats (average weight about 250 g).
On the base of the obtained results in preliminary trials, the doses utilized for the comparison were comprised beween 0.2 and 0.4 mg/kg for physostigmine and between 1.5 and 4 mg/kg for the eseroline derivatives under question.
The groups of treated rats were sacrificed after 20, 60, and 120 minutes and the blood and the brain of each animal were immediately cooled to 0°C and maintained at this temperature during the successive treatments.
The acetylcholinesterase activity (AchE) was determined by using the Ellman et al's quick colorimetric method (Biochem. Pharmacol., 7, 88, 1961) and it was expressed as enzymatic inhibition percentage.

mouse [4] = assay: acute toxicity, oral LD50 in the mouse; conditions: oral, suspension in 2% carboxymethylcellulose, observation period 7 days
Excerpt: (§1) The mouse was used (Swiss strain having the average weight of the male mice being 26 g and 22 g that of the female mice: 5+5 animals per dose, observation period: 7days) The oral LD50 (suspension in 2% carboxymethylcellulose) were reported hereinbelow: Tab.2

[5] = effect on the succinylcholine curarization duration (corneal reflex); assay type: in vivo; conditions: i.v. administration of 0.6 mg/kg, rabbit; compared with physostigmine
mouse [6] = assay: spontaneous motility (Dews' method modified according to Carminati); assay type: in vivo, mouse (SWISS strain); conditions: for reduction of spontaneous motility: oral, starting from minimal doses of 3.5-5 mg/kg, on average; for minimal doses causing a marked reduction of spontaneous motility: orally administered
Excerpt: The Dews' method was utilized, as modified according to Carminati (Arch. Int. Pharmacodyn. et Thér. 181, 68,1969).

[7] = acute toxicity, oral LD50 in the mouse; conditions: mouse, in vivo, po
Excerpt: as §1

[8] = preliminary pharmacokinetics, plasma level by HPLC; assay type: in vivo, Wistar rats; conditions: rats, 6.2 mg/kg/os
Excerpt: The presence of the substance in the plasma was evidenced by HPLC. With this method, the identification threshold was 0.15 mcg per ml of plasma.

| Compound | increase of the spontaneous motility [1] | increase in motor activity (stimulating effect) [2] [%] | inhibitory activity of the acetylcholinesterase [3] | LD50 in the mouse (mouse [4]) | anticholinesterase effect with respect to the succinylcholine curarizing action [5] | reduction of spontaneous motility (mouse [6]) [%] | minimal doses causing a marked reduction of spontaneous motility (mouse [6]) [mg/kg] | LD50 at 168 h [7] [mg/kg] | maximum peak in plasma [8] [µg/mL] | time of the maximum peak [8] | concentration in plasma ([8]; after 24 hours) [ng/mL] | concentration in plasma ([8]; time not given) [ng/mL] |
| --- | --- | --- | --- | --- | --- | --- | --- | --- | --- | --- | --- | --- |
| CN1[C@@H]2C[C@@H](OC(=O)[C@H](CO)c3ccccc3)C[C@H]1[C@@H]1O[C@@H]12 [scopolamine, reference compound] | 80-100% | 100 | – | – | – | – | – | – | – | – | – | – |
| eseroline L-prolylpyrrolidinamide [MGT2] | – | – | evident dose dipendent and reversible inhibitory activity | 342,2 ± 11,16 mg/kg | the same anticholinesterase effect | ~-39 | 3.5 to 5 | – | – | – | – | – |
| CN1CC[C@@]2(C)c3cc(OC(=O)Nc4ccc5c(c4)OCO5)ccc3N(C)[C@@H]12 [MGT7, eseroline 1,3 benzodioxol-5 carbamate] | – | – | evident dose dipendent and reversible inhibitory activity | – | – | ~-39 | 3.5 to 5 | 332 | – | – | – | – |
| CN1CC[C@@]2(C)c3cc(OC(=O)N[C@H]4CCCCNC4=O)ccc3N(C)[C@@H]12 [MGT1, eseroline R-caprolactam carbamate] | – | – | – | – | – | ~-39 | 3.5 to 5 | 322 | 36.14 ± 7.12 | 90 ' | 5090 ± 1710 | 17110 ± 3810 |
